# From patent publication US20240150340A1, “CDK Inhibitors And Their Use As Pharmaceuticals” (Prelude Therapeutics Incorporated, priority 2022, published 2024)
# What was measured:
# [1] = biological target: T1, CDK2/Cyclin E2 (Homo sapiens, UniProt P24941); experiment: CDK2/CyclinE2 Enzymatic Activity Assay (TR-FRET); assay type: biochemical; conditions: ATP 1 mM final, read-out: CDK2_E1 IC50
# T1 construct: Recombinant protein complex CDK2/Cyclin E2, expressed from insect cell, was purchased from ProQinase
# Procedure: CDK2/CyclinE2 Enzymatic Activity Assay
# The inhibitory activity of compounds was evaluated in vitro using TR-FRET assay with white 384-well low volume microplate (Greiner Bio-One). CDK2/Cyclin E2 catalyzed phosphorylation of peptide in the presence and absence of compounds was measured and used in IC50 determination. Recombinant protein complex CDK2/Cyclin E2, expressed from insect cell, was purchased from ProQinase. Testing compounds were dissolved in DMSO at 1 mM and tested in 9-dose IC50 mode. The reaction mixture was prepared by mixing CDK2/CyclinE2 (1 nM final), ULight-4E-BP1 (50 nM final, Perkinelmer, TRF0128-D), and ATP (1 mM final) in assay buffer (20 mM of HEPES pH 7.4, 1 mM of EGTA, 0.05% BSA, 0.005% Tween 20, and 1 mM TCEP). The compound of interest in DMSO was added to each well in 3-fold serial dilution by dispenser (TECAN D300E) to make a 9.9 μL of reaction mixture. After 20 minutes preincubation at room temperature, 0.1 μL MgCl2 (10 mM final) was added to initiate the reaction. Following a 45 minute incubation at 37° C., the reaction was stopped by addition of 2 μL of quenching buffer consisting of Lance detection buffer (Perkinelmer CR97-100C), LANCE Ultra Europium-anti-P-4E-BP1 (Perkinelmer, TRF0216-D), EDTA, and incubated at room temperature for additional 60 minutes in the dark. The reaction signal was measured by Envision multimode plate reader (PerkinElmer, 2102-0010). IC50 values were determined by fitting the data to the standard 4 parameters with Hill Slope using GraphPad Prism software.
# [2] = system: OVCAR3 p-RB; experiment: pRB ICW Assay in OVCAR3 Cells; assay type: cell-based; conditions: Homo sapiens, OVCAR-3, incubated with compound for 2 hours
# Procedure: pRB ICW Assay in OVCAR3 Cells
# OVCAR3 cells were maintained in RPMI (Corning, Catalog #: 10-040-CV) supplemented with 10% v/v FBS (Gibco, Catalog #: 26140-079), 1% v/v Penicillin Streptomycin (Gibco, Catalog #15140-122.) OVCAR3 cells grown at log phase were trypsinized, counted, and resuspended in fresh medium to reach a final density of 6.7e4 cells/mL and 75 μL of culture were dispensed into a 384-well plate (Falcon, cat #353962) using a Multidrop Combi dispenser (Thermo Scientific). The next day, compounds were dispensed as a 9-point, ½ log serial dilution using a Tecan digital dispenser (D300e), and cells were incubated with compound for 2 hours in a humidified incubator at 37° C. A reference compound at a final concentration of 10 μM was used as a control for maximum inhibition. Each compound was tested in duplicate for each experiment. At the end of the incubation, […] (Electron Microscopy, cat #15710) was slowly added to each well and the plate was incubated at room temperature (RT) for 30 minutes to fix cells. Cells were then permeabilized by incubating with 50 μL/well of wash buffer (1×PBS with 0.1% Triton X-100) 5×5 minutes, followed by 1 hour blocking with 30 μL/well of Odyssey blocking buffer (Li-COR, cat #927-40000), at RT. Anti-phosphor RB antibody (Cell signaling 8516S) was diluted 1:1000 in Odyssey blocking buffer and 20 μL was added to all wells and incubated overnight in 4° C. with gently rocking. The next day, cells were washed 5×5 min with 50 μL/well of wash buffer, followed with 1 hour incubation with secondary antibody and DRAQ5 diluted in Odyssey blocking buffer (1:500 dilution for secondary antibody and 1:2000 dilution for DRAQ5), 5×5 min washes, and one last wash with water. Plates were dried in 37° C. oven for 5 minutes and scanned using Li-COR Odyssey CLx imaging system to acquire intensities at 700 and 800 nm channels.
IC50 [1] [nM],IC50 [2] [nM],SMILES
≤ 100,100 to 500,"C[C@@H]1CN(S(=O)(=O)c2cnn(C)c2)CC[C@@H]1Nc1ncc(C(F)(F)F)c(-c2ncc(C(O)CF)s2)n1 (stereo partly drawn) [Example 144, 2-fluoro-1-(2-(2-(((3R,4S)-3-methyl-1-((1-methyl-1H-pyrazol-4-yl)sulfonyl)piperidin-4-yl)amino)-5-(trifluoromethyl)pyrimidin-4-yl)thiazol-5-yl)ethan-1-ol]"
≤ 100,> 500,"C[C@@H]1CN(S(=O)(=O)N2CCOCC2)CC[C@@H]1Nc1ncc(C(F)(F)F)c(-c2ncc(CC(C)(C)O)s2)n1 [Example 147, 2-methyl-1-(2-(2-(((3R,4S)-3-methyl-1-(morpholinosulfonyl)piperidin-4-yl)amino)-5-(trifluoromethyl)pyrimidin-4-yl)thiazol-5-yl)propan-2-ol]"
≤ 100,> 500,"C[C@@H]1CN(S(=O)(=O)N2CCN(C)CC2)CC[C@@H]1Nc1ncc(C(F)(F)F)c(-c2ncc(CC(C)(C)O)s2)n1 [Example 148, 2-methyl-1-(2-(2-(((3R,4S)-3-methyl-1-((4-methylpiperazin-1-yl)sulfonyl)piperidin-4-yl)amino)-5-(trifluoromethyl)pyrimidin-4-yl)thiazol-5-yl)propan-2-ol]"
≤ 100,> 500,"C[C@@H]1CN(S(=O)(=O)N(C)C)CC[C@@H]1Nc1ncc(C(F)(F)F)c(-c2ncc(CC(C)(C)O)s2)n1 [Example 149, (3R,4S)-4-((4-(5-(2-hydroxy-2-methylpropyl)thiazol-2-yl)-5-(trifluoromethyl)pyrimidin-2-yl)amino)-N,N,3-trimethylpiperidine-1-sulfonamide]"
≤ 100,100 to 500,"C[C@@H]1CN(S(=O)(=O)c2cnn(C)c2)CC[C@@H]1Nc1ncc(C(F)(F)F)c(-c2ncc(C3(O)CC3)s2)n1 [Example 150, 1-(2-(2-(((3R,4S)-3-methyl-1-((1-methyl-1H-pyrazol-4-yl)sulfonyl)piperidin-4-yl)amino)-5-(trifluoromethyl)pyrimidin-4-yl)thiazol-5-yl)cyclopropan-1-ol]"

# Continued, compound first:
SMILES,IC50 [1] [nM],IC50 [2] [nM]
"C[C@@H]1CN(S(C)(=O)=O)CC[C@@H]1Nc1ncc(C(F)(F)F)c(-c2ncc(C(O)C(F)(F)F)s2)n1 (stereo partly drawn) [Example 140, 2,2,2-trifluoro-1-(2-(2-(((3R,4S)-3-methyl-1-(methylsulfonyl)piperidin-4-yl)amino)-5-(trifluoromethyl)pyrimidin-4-yl)thiazol-5-yl)ethan-1-ol]",≤ 100,> 500
"C[C@@H]1CN(S(=O)(=O)c2cnn(C)c2)CC[C@@H]1Nc1ncc(C(F)(F)F)c(-c2ncc(C(O)C(F)(F)F)s2)n1 (stereo partly drawn) [Example 141, 2,2,2-trifluoro-1-(2-(2-(((3R,4S)-3-methyl-1-((1-methyl-1H-pyrazol-4-yl)sulfonyl)piperidin-4-yl)amino)-5-(trifluoromethyl)pyrimidin-4-yl)thiazol-5-yl)ethan-1-ol]",≤ 100,100 to 500
"C[C@@H]1CN(S(=O)(=O)c2cnn(C)c2)CC[C@@H]1Nc1ncc(C(F)(F)F)c(-c2ncc(C(C)(O)C(F)F)s2)n1 (stereo partly drawn) [Example 143, 1,1-difluoro-2-(2-(2-(((3R,4S)-3-methyl-1-((1-methyl-1H-pyrazol-4-yl)sulfonyl)piperidin-4-yl)amino)-5-(trifluoromethyl)pyrimidin-4-yl)thiazol-5-yl)propan-2-ol]",≤ 100,≤ 100
"C[C@@H]1CN(S(C)(=O)=O)CC[C@@H]1Nc1ncc(C(F)(F)F)c(-c2ncc(C(O)CF)s2)n1 (stereo partly drawn) [Example 145, 2-fluoro-1-(2-(2-(((3R,4S)-3-methyl-1-(methylsulfonyl)piperidin-4-yl)amino)-5-(trifluoromethyl)pyrimidin-4-yl)thiazol-5-yl)ethan-1-ol]",≤ 100,> 500
"C[C@@H]1CN(S(C)(=O)=O)CC[C@@H]1Nc1ncc(C(F)(F)F)c(-c2ncc(C(O)C(F)F)s2)n1 (stereo partly drawn) [Example 146, 2,2-difluoro-1-(2-(2-(((3R,4S)-3-methyl-1-(methylsulfonyl)piperidin-4-yl)amino)-5-(trifluoromethyl)pyrimidin-4-yl)thiazol-5-yl)ethan-1-ol]",≤ 100,100 to 500
